Data as given in paper PMC4383039 (Science translational medicine, 2015).
Converted amounts (≈) assume the structure as drawn. “And” between values parts separate entries of the source, which are not always exact repeats. Equal values may be shown once.

Tests used:
Format in all cases: cell-based, Mycobacterium tuberculosis
[1] = tested on: 4-hydroxy-2-pyridone resistance mutants of Mtb
[2] = tested on: H37Rv∷pMV262-InhA strains; experiment: microbe, parasite or virus in culture; conditions: for MIC50: Mycobacterium tuberculosis, H37RV, read-out: Compound MIC50
Mtb H37Rv = tested on: Mtb H37Rv

| SMILES | Compound MIC50 [1] | Compound MIC50 [2] | MIC50 [2] | fold more resistant than the parental H37Rv strain [1] | Mutation frequency (Mtb H37Rv) | frequency of resistance (Mtb H37Rv) | resistance, MIC50 fold [1] | MIC50 fold shift with the Mtb H37Rv strain [2] |
| --- | --- | --- | --- | --- | --- | --- | --- | --- |
| [H]/N=C(/N)N[C@H]1[C@H](O)[C@@H](O)[C@H](O[C@@H]2O[C@@H](C)[C@](O)(C=O)[C@H]2O[C@@H]2O[C@@H](CO)[C@H](O)[C@@H](O)[C@@H]2NC)[C@@H](N/C(N)=N\[H])[C@@H]1O [streptomycin] | 0.1 µM and 0.09 µM and 0.08 µM and 0.06 µM | 0.084 µM and 0.079 µM and 0.075 µM | 0.074 µM (≈ 0.043 µg/mL) |  |  |  |  |  |
| CC(C)Cc1cc(O)c(-c2ccccc2)c(=O)[nH]1 [NITD-529, 4-hydroxy-6-isobutyl-3-phenylpyridin-2(1H)-one] | > 40 µM |  | 2.59 µM (≈ 0.63 µg/mL) | at least 25 fold | 1.2×10^-8 | 1 × 10^−8 |  |  |
| NNC(=O)c1ccncc1 [isoniazid] |  |  | 0.51 µM (≈ 0.0699 µg/mL) |  | ∼ 1× 10^-6 |  | > 3 fold | 0.51 (2.04×) |
| CCc1cc(C(N)=S)ccn1 [ethionamide] |  |  |  |  |  |  | > 3 fold |  |
